In article PMC8124942, “In Vitro and In Vivo Cell Uptake of a Cell-Penetrating Peptide Conjugated with Fluorescent Dyes Having Different Chemical Properties” (Cancers, 2021):

Assay: Reverse-phase HPLC retention time as indicator of hydrophilicity/lipophilicity
Type: physicochemical
Settings: chromatographic, COSMOSIL 5C18-AR-300 (4.6 x 150 mm), eluent A H2O/0.1% TFA, eluent B CH3CN/0.1% TFA, A:B = 80:20 to 20:80 in 25 min, detection 649 nm (Cy5/sulfoCy5) or 545 nm (Cy3/sulfoCy3), used as indicator of hydrophilicity/lipophilicity
Source text: General chemicals were of the best grade available, supplied by FUJIFILM Wako Pure Chemical Corporation (Osaka, Japan), Tokyo Chemical Industries Co., Ltd. (Tokyo, Japan), KANTO CHEMICAL Co., INC. (Tokyo, Japan), and Sigma-Aldrich Co. LLC (St. Louis, MO, USA), and were used without further purification. Cy3/Cy5-SE was purchased from Abcam (Cambridge, UK) and sulfoCy3/sulfoCy5-SE was purchased from AAT Bioquest (Sunnyvale, CA, USA). Peptide A was purchased from GlyTech, Inc. (Kyoto, Japan). MALDI-TOF mass spectra (MS) were measured with an Autoflex III TOF/TOF (Bruker Corporation, Billerica, MA, USA). Purification and high-performance liquid chromatography (HPLC) analyses were performed by HPLC systems (Shimadzu Corporation, Kyoto, Japan) with reverse-phase columns: the COSMOSIL 5C18-AR-300 (4.6 × 150 mm) (NACALAI TESQUE, INC., Kyoto, Japan) for analysis and the COSMOSIL 5C18-AR-300 (10 mm × 150 mm) (NACALAI TESQUE, INC.) for purification, using eluent A (H2O/0.1% trifluoroacetic acid (TFA)) and eluent B (CH3CN/0.1% TFA). Fluorescence images of living cells were taken on a BX41 upright fluorescent microscope (Olympus Corporation, Tokyo, Japan) equipped with a suitable filter set for Cy3/Cy5 dyes; it consisted of a 530–550 nm excitation filter and a 575–625 nm emission filter for the Cy3 dye, and a 608–648 nm excitation filter and a 652–732 nm emission filter for the Cy5 dye. […] Fluorescence images of animals and organs were taken with a FluorVivo Imaging System (Indec BioSystems, Santa Clara, CA, USA) equipped with a suitable filter set for a Cy5 dye; it consisted of a 600–640 nm excitation filter and a 665 nm long pass filter. […]
Cy3/Cy5-peptide A and sulfoCy3/sulfoCy5-peptide A were synthesized using commercially available Cy3/Cy5 succinimidyl ester (SE) and sulfoCy3/sulfoCy5 SE (Figure 1). […] Dye-SE and dye-peptide A were analyzed by HPLC under the same conditions; the retention times are shown in Table 1 because they are indicators of hydrophilicity/lipophilicity. […]
Figure S1. […] The compounds were analyzed by reverse-phase HPLC (eluent A: […]

Compound: CCN1C(=CC=CC2=[N+](CCCCCC(=O)ON3C(=O)CCC3=O)c3ccc(S(=O)(=O)O)cc3C2(C)C)C(C)(C)c2cc(S(=O)(=O)[O-])ccc21 [sulfoCy3-SE]
- Retention Time: 7.3 min

Compound: CCN1C(=CC=CC=CC2=[N+](CCCCCC(=O)ON3C(=O)CCC3=O)c3ccc(S(=O)(=O)O)cc3C2(C)C)C(C)(C)c2cc(S(=O)(=O)[O-])ccc21 [sulfoCy5-SE]
- Retention Time: 9.3 min

Compound: Cy5 succinimidyl ester [Cy5-SE]
- Retention Time: 22.6 min
